Experimental data: patent publication US20100267561A1, “HERBICIDAL PYRIDAZINONE DERIVATIVES” (priority 2007, published 2010)

Assays:
Type in all cases: in vivo
[1] = system: itchgrass (Rottboellia cochinchinensis); assay: Test E pre-/postemergence plant response; conditions: scale 0 to 100
Text: (§1) Seeds of plant species selected from bermudagrass (Cynodon dactylon), Surinam grass (Brachiaria decumbens), large crabgrass (Digitaria sanguinalis), green foxtail (Setaria viridis), goosegrass (Eleusine indica), johnsongrass (Sorghum halepense), kochia (Kochia scoparia), pitted morningglory (Ipomoea lacunosa), purple nutsedge (Cyperus rotundus), common ragweed (Ambrosia elation), black mustard (Brassica nigra), guineagrass (Panicum maximum), dallisgrass (Paspalum dilatatum), barnyardgrass (Echinochloa crus-galli), southern (S.) sandbur (Cenchrus echinatus), common sowthistle (Sonchus oleraceous), prickly sida (Sida spinosa), Italian ryegrass (Lolium multiflorum), common purslane (Portulaca oleracea), broadleaf signalgrass (Brachiaria platyphylla), common groundsel (Senecio vulgaris), common chickweed (Stellaria media), Virginia (V.) dayflower (Commelina virginica), tropical (T.) spiderwort (Commelina benghalensis), annual bluegrass (Poa annua), naked crabgrass (Digitaria nuda), itchgrass (Rottboellia cochinchinensis), quackgrass (Elytrigia repens), Canada horseweed (Conyza canadensis), field bindweed (Convolvulus arvensis), spanishneedles (Bidens bipinnata), common mallow (Malva sylvestris) and Russian thistle (Salsola kali) were planted and treated preemergence with test chemicals formulated in a non-phytotoxic solvent mixture which included a surfactant. At the same time, plants selected from these weed species were treated with postemergence applications of some of the test chemicals formulated in the same manner. Plants ranged in height from 2 to 18 cm (1- to 4-leaf stage) for postemergence treatments.
(§2) Treated plants and controls were maintained in a greenhouse for 14 to 21 days, after which time all species were compared to controls and visually evaluated. Plant response ratings, summarized in Table E, are based on a scale of 0 to 100 where 0 is no effect and 100 is complete control. A dash (-) response means no test result.

[2] = system: common groundsel (Senecio vulgaris); assay: Test E pre-/postemergence plant response; conditions: scale 0 to 100
Text: as §1, §2

[3] = system: dallisgrass (Paspalum dilatatum); assay: Test E pre-/postemergence plant response; conditions: scale 0 to 100
Text: as §1, §2

[4] = system: johnsongrass (Sorghum halepense); assay: Test E pre-/postemergence plant response; conditions: scale 0 to 100
Text: as §1, §2

[5] = system: bermudagrass (Cynodon dactylon); assay: Test E pre-/postemergence plant response; conditions: scale 0 to 100
Text: as §1, §2

[6] = system: goosegrass (Eleusine indica); assay: Test E pre-/postemergence plant response; conditions: scale 0 to 100
Text: as §1, §2

[7] = system: annual bluegrass (Poa annua); assay: Test E pre-/postemergence plant response; conditions: scale 0 to 100
Text: as §1, §2

[8] = system: winter barley (Hordeum vulgare); assay: Test C pre-/postemergence plant response; conditions: Preemergence
Procedure, shortened: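 Seeds are planted and sprayed preemergence, while established plants at the 1- to 4-leaf stage (2 to 18 cm) receive postemergence sprays of the same surfactant-containing, non-phytotoxic solvent formulation. After 15 to 25 days under controlled conditions, injury is scored visually from 0 (no effect) to 100 (complete control).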

[9] = 8 g ai/ha, scale 0 to 100 (0 no effect, 100 complete control)
[10] = 31 g ai/ha, scale 0 to 100 (0 no effect, 100 complete control)
[11] = 62 g ai/ha, scale 0 to 100, 0 no effect, 100 complete control

Structure (SMILES): CCc1cc(-c2ccc(C(F)(F)F)cc2)nn1-c1c(OC(=O)OC(C)C)cnn(C)c1=O [Compound 12]
- Plant response rating, Itchgrass ([1]; 4 g ai/ha, Postemergence): 0
- Plant response rating, Itchgrass ([1]; 31 g ai/ha, Preemergence): 80
- Plant response rating, Itchgrass ([1]; Postemergence, 8 g ai/ha): 50
- Plant response rating, Itchgrass ([1]; Postemergence, 31 g ai/ha): 95
- Plant response rating, Itchgrass ([1]; Preemergence, 4 g ai/ha): 20
- Plant response rating, Groundsel ([2]; 4 g ai/ha, Postemergence): 0
- Plant response rating, Groundsel ([2]; 31 g ai/ha, Preemergence): 0
- Plant response rating, Groundsel ([2]; Postemergence, 8 g ai/ha): 0
- Plant response rating, Groundsel ([2]; Postemergence, 31 g ai/ha): 0
- Plant response rating, Groundsel ([2]; Preemergence, 4 g ai/ha): 0
- Plant response rating, Dallisgrass ([3]; 4 g ai/ha, Postemergence): 65
- Plant response rating, Dallisgrass ([3]; 8 g ai/ha, Preemergence): 40
- Plant response rating, Dallisgrass ([3]; 31 g ai/ha, Preemergence): 100
- Plant response rating, Dallisgrass ([3]; Postemergence, 8 g ai/ha): 75
- Plant response rating, Dallisgrass ([3]; Postemergence, 31 g ai/ha): 85
- Plant response rating, Dallisgrass ([3]; Preemergence, 4 g ai/ha): 0
- Plant response rating, Johnsongrass ([4]; 4 g ai/ha, Postemergence): 95
- Plant response rating, Johnsongrass ([4]; 31 g ai/ha, Preemergence): 95
- Plant response rating, Johnsongrass ([4]; Postemergence, 8 g ai/ha): 95
- Plant response rating, Johnsongrass ([4]; Postemergence, 31 g ai/ha): 95
- Plant response rating, Johnsongrass ([4]; Preemergence, 4 g ai/ha): 75
- Plant response rating, Bermudagrass ([5]; 4 g ai/ha, Postemergence): 15
- Plant response rating, Bermudagrass ([5]; 8 g ai/ha, Preemergence): 75
- Plant response rating, Bermudagrass ([5]; 31 g ai/ha, Preemergence): 95
- Plant response rating, Bermudagrass ([5]; Postemergence, 8 g ai/ha): 70
- Plant response rating, Bermudagrass ([5]; Postemergence, 31 g ai/ha): 95
- Plant response rating, Bermudagrass ([5]; Preemergence, 4 g ai/ha): 35
- Plant response rating, Goosegrass ([6]; 4 g ai/ha, Postemergence): 10
- Plant response rating, Goosegrass ([6]; 8 g ai/ha, Preemergence): 65
- Plant response rating, Goosegrass ([6]; 31 g ai/ha, Preemergence): 75
- Plant response rating, Goosegrass ([6]; Postemergence, 8 g ai/ha): 30
- Plant response rating, Goosegrass ([6]; Postemergence, 31 g ai/ha): 90
- Plant response rating, Goosegrass ([6]; Preemergence, 4 g ai/ha): 25
- Plant response rating, Bluegrass ([7]; 4 g ai/ha, Postemergence): 0
- Plant response rating, Bluegrass ([7]; 8 g ai/ha, Preemergence): 0
- Plant response rating, Bluegrass ([7]; 31 g ai/ha, Preemergence): 0
- Plant response rating, Bluegrass ([7]; Postemergence, 8 g ai/ha): 0
- Plant response rating, Bluegrass ([7]; Postemergence, 31 g ai/ha): 0
- Plant response rating, Bluegrass ([7]; Preemergence, 4 g ai/ha): 0

Structure (SMILES): Cc1cc(-c2ccc(Cl)cc2)nn1-c1c(OC(=O)c2cccc(Cl)c2)cnn(C)c1=O [Compound 32]
- Plant response rating, Itchgrass ([1]; Postemergence, 8 g ai/ha): 30
- Plant response rating, Itchgrass ([1]; Postemergence, 16 g ai/ha): 75
- Plant response rating, Itchgrass ([1]; Postemergence, 31 g ai/ha): 90
- Plant response rating, Itchgrass ([1]; Postemergence, 62 g ai/ha): 90
- Plant response rating, Groundsel ([2]; Postemergence, 8 g ai/ha): 0
- Plant response rating, Groundsel ([2]; Postemergence, 16 g ai/ha): 0
- Plant response rating, Groundsel ([2]; Postemergence, 31 g ai/ha): 0
- Plant response rating, Groundsel ([2]; Postemergence, 62 g ai/ha): 0
- Plant response rating, Dallisgrass ([3]; Postemergence, 8 g ai/ha): 0
- Plant response rating, Dallisgrass ([3]; Postemergence, 16 g ai/ha): 20
- Plant response rating, Dallisgrass ([3]; Postemergence, 31 g ai/ha): 30
- Plant response rating, Dallisgrass ([3]; Postemergence, 62 g ai/ha): 40
- Plant response rating, Johnsongrass ([4]; Postemergence, 8 g ai/ha): 50
- Plant response rating, Johnsongrass ([4]; Postemergence, 16 g ai/ha): 80
- Plant response rating, Johnsongrass ([4]; Postemergence, 31 g ai/ha): 98
- Plant response rating, Johnsongrass ([4]; Postemergence, 62 g ai/ha): 100
- Plant response rating, Bermudagrass ([5]; Postemergence, 8 g ai/ha): 5
- Plant response rating, Bermudagrass ([5]; Postemergence, 16 g ai/ha): 20
- Plant response rating, Bermudagrass ([5]; Postemergence, 31 g ai/ha): 40
- Plant response rating, Bermudagrass ([5]; Postemergence, 62 g ai/ha): 75
- Plant response rating, Goosegrass ([6]; Postemergence, 8 g ai/ha): 35
- Plant response rating, Goosegrass ([6]; Postemergence, 16 g ai/ha): 35
- Plant response rating, Goosegrass ([6]; Postemergence, 31 g ai/ha): 60
- Plant response rating, Goosegrass ([6]; Postemergence, 62 g ai/ha): 80
- Plant response rating, Bluegrass ([7]; Postemergence, 8 g ai/ha): 0
- Plant response rating, Bluegrass ([7]; Postemergence, 16 g ai/ha): 0
- Plant response rating, Bluegrass ([7]; Postemergence, 31 g ai/ha): 0
- Plant response rating, Bluegrass ([7]; Postemergence, 62 g ai/ha): 0
- Plant response rating, Barley, Winter [8, 9]: 0
- Plant response rating, Barley, Winter ([8]; 16 g ai/ha, scale 0 to 100 (0 no effect, 100 complete control)): 0
- Plant response rating, Barley, Winter [8, 10]: 20
- Plant response rating, Barley, Winter [8, 11]: 65

Structure (SMILES): Cc1cc(-c2ccc(Cl)cc2)nn1-c1c(OS(=O)(=O)c2ccccc2)cnn(C)c1=O [Compound 35]
- Plant response rating, Itchgrass ([1]; 16 g ai/ha, Preemergence): 75
- Plant response rating, Itchgrass ([1]; 31 g ai/ha, Preemergence): 75
- Plant response rating, Itchgrass ([1]; 62 g ai/ha, Preemergence): 75
- Plant response rating, Itchgrass ([1]; Postemergence, 8 g ai/ha): 30
- Plant response rating, Itchgrass ([1]; Postemergence, 16 g ai/ha): 40
- Plant response rating, Itchgrass ([1]; Postemergence, 31 g ai/ha): 70
- Plant response rating, Itchgrass ([1]; Postemergence, 62 g ai/ha): 70
- Plant response rating, Groundsel ([2]; Postemergence, 8 g ai/ha): 0
- Plant response rating, Groundsel ([2]; Postemergence, 16 g ai/ha): 0
- Plant response rating, Dallisgrass ([3]; 8 g ai/ha, Preemergence): 0
- Plant response rating, Dallisgrass ([3]; 16 g ai/ha, Preemergence): 40
- Plant response rating, Dallisgrass ([3]; 31 g ai/ha, Preemergence): 90
- Plant response rating, Dallisgrass ([3]; 62 g ai/ha, Preemergence): 90
- Plant response rating, Dallisgrass ([3]; Postemergence, 8 g ai/ha): 30
- Plant response rating, Dallisgrass ([3]; Postemergence, 16 g ai/ha): 30
- Plant response rating, Dallisgrass ([3]; Postemergence, 31 g ai/ha): 50
- Plant response rating, Dallisgrass ([3]; Postemergence, 62 g ai/ha): 60
- Plant response rating, Johnsongrass ([4]; 16 g ai/ha, Preemergence): 75
- Plant response rating, Johnsongrass ([4]; 31 g ai/ha, Preemergence): 80
- Plant response rating, Johnsongrass ([4]; 62 g ai/ha, Preemergence): 90
- Plant response rating, Johnsongrass ([4]; Postemergence, 8 g ai/ha): 40
- Plant response rating, Johnsongrass ([4]; Postemergence, 16 g ai/ha): 50
- Plant response rating, Johnsongrass ([4]; Postemergence, 31 g ai/ha): 70
- Plant response rating, Johnsongrass ([4]; Postemergence, 62 g ai/ha): 98
- Plant response rating, Bermudagrass ([5]; 8 g ai/ha, Preemergence): 60
- Plant response rating, Bermudagrass ([5]; 16 g ai/ha, Preemergence): 80
- Plant response rating, Bermudagrass ([5]; 31 g ai/ha, Preemergence): 98
- Plant response rating, Bermudagrass ([5]; 62 g ai/ha, Preemergence): 100
- Plant response rating, Bermudagrass ([5]; Postemergence, 8 g ai/ha): 35
- Plant response rating, Bermudagrass ([5]; Postemergence, 16 g ai/ha): 65
- Plant response rating, Bermudagrass ([5]; Postemergence, 31 g ai/ha): 80
- Plant response rating, Bermudagrass ([5]; Postemergence, 62 g ai/ha): 90
- Plant response rating, Goosegrass ([6]; 8 g ai/ha, Preemergence): 20
- Plant response rating, Goosegrass ([6]; 16 g ai/ha, Preemergence): 75
- Plant response rating, Goosegrass ([6]; 31 g ai/ha, Preemergence): 100
- Plant response rating, Goosegrass ([6]; 62 g ai/ha, Preemergence): 100
- Plant response rating, Goosegrass ([6]; Postemergence, 8 g ai/ha): 30
- Plant response rating, Goosegrass ([6]; Postemergence, 16 g ai/ha): 30
- Plant response rating, Goosegrass ([6]; Postemergence, 31 g ai/ha): 40
- Plant response rating, Goosegrass ([6]; Postemergence, 62 g ai/ha): 75
- Plant response rating, Bluegrass ([7]; 8 g ai/ha, Preemergence): 0
- Plant response rating, Bluegrass ([7]; 16 g ai/ha, Preemergence): 0
- Plant response rating, Bluegrass ([7]; 31 g ai/ha, Preemergence): 0
- Plant response rating, Bluegrass ([7]; 62 g ai/ha, Preemergence): 0
- Plant response rating, Bluegrass ([7]; Postemergence, 8 g ai/ha): 0
- Plant response rating, Bluegrass ([7]; Postemergence, 16 g ai/ha): 0
- Plant response rating, Bluegrass ([7]; Postemergence, 31 g ai/ha): 0
- Plant response rating, Bluegrass ([7]; Postemergence, 62 g ai/ha): 0
- Plant response rating, Barley, Winter [8, 9]: 0
- Plant response rating, Barley, Winter [8, 10]: 0
- Plant response rating, Barley, Winter [8, 11]: 50
